Data on 26 compounds can be found in patent US10100019B2.

Each structure is given as a SMILES string. Where a name gives a salt, the structure may show the parent alone. Read-outs that look alike come from different tables or passages of the source.

In one data set the test system is H3122 cells. The data set is described as follows: Cytotoxicity in non-small cell lung cancer cell line H3122 (SRB). The format is cell-based, human. The protocol: Particularly, 4,000 H3122 cells containing ALK enzyme were distributed in each well of a 96 well plate together with 100 μl of DMEM (Dulbecco's Modified Eagle's Medium). One day later, the compound of the present invention was added to each well at different concentrations of […]. DMSO (dimethylsulfoxide) was added to the well that was not loaded with the compound by the same amount as the compound. Three days after the addition of the compound, DMEM was eliminated. 10% TCA (trichloroacetic acid) was added to fix the cells. The wells were washed with running water three times and the live cells were stained with SRB solution (1 sulphorodamine B). Then, OD was measured to calculate the population of the live cells.

The next data set has as its system H2228 cells. The data set is described as follows: cells. The settings on record: Homo sapiens, NCI-H2228, 72 h.
A further data set relates to Ba/F3 EML4-ALK WT cells. Nature of the data set: cells. The format is cell-based, rodent. As to conditions: Ba/F3 EML4-ALK, read-out: Ba/F3 EML-ALK WT (IC50 μM).
The mark [1] stands for this setting: Homo sapiens, NCI-H3122, 72 h, H3122 cells, three days, SRB.
Setting [2] is: read-out: Cytotoxicity H2228 (GI50 μM), H2228 cells, three days, SRB.

Broadly, the GI50 is the concentration that inhibits growth by half. Consider `COc1ccc(CN)cc1Nc1ncc(Cl)c(Nc2ccccc2S(=O)(=O)C(C)C)n1` [Example 29, N2-(5-(aminomethyl)-2-methoxyphenyl)-5-chloro-N4-(2-(isopropylsulfonyl)phenyl)pyrimidine-2,4-diamine], for which the 50% growth inhibitory concentration (GI50) in the data set with H3122 cells (setting [1]) came out at 0.1 µM; in the data set with H2228 cells (setting [2]), 0.14 µM.

Take `COc1ccc(CCNCc2ccccc2)cc1Nc1ncc(Cl)c(Nc2ccccc2S(=O)(=O)C(C)C)n1` [Example 11, N2-(5-(2-(benzylamino)ethyl)-2-methoxyphenyl)-5-chloro-N4-(2-(isopropylsulfonyl)phenyl)pyrimidine-2,4-diamine]: the GI50 with H3122 cells (setting [1]) and with H2228 cells (setting [2]) was 1.4 µM each time.

Turning to `COc1ccc(CCNC(=O)Cc2ccccc2)cc1Nc1ncc(Cl)c(Nc2ccccc2S(=O)(=O)C(C)C)n1` [Example 12, N-(3-(5-chloro-4-(2-(isopropylsulfonyl)phenylamino)pyrimidine-2-ylamino)-4-methoxyphenethyl)-2-phenylacetamide], the figures for the GI50 in the data set with H3122 cells (setting [1]) and in the data set on H2228 cells (setting [2]) were 4.7 µM and 1.1 µM, respectively.

As for `COc1ccc(CCN)cc1Nc1ncc(Cl)c(Nc2ccc(F)cc2S(=O)(=O)C(C)C)n1` [Example 32, N2-(5-(2-aminoethyl)-2-methoxyphenyl)-5-chloro-N4-(4-fluoro-2-(isopropylsulfonyl)phenyl)pyrimidine-2,4-diamine], the GI50 was determined as 0.71 µM with H3122 cells (setting [1]) and 0.64 µM in the data set on H2228 cells (setting [2]).

In the case of `COc1ccc(C2(CN3CCOCC3)CCCC2)cc1Nc1ncc(Cl)c(Nc2ccccc2S(=O)(=O)C(C)C)n1` [Example 6, 5-chloro-N4-(2-(isopropylsulfonyl)phenyl)-N2-(2-methoxy-5-(1-(morpholinomethyl)cyclopentyl)phenyl)pyrimidine-2,4-diamine], the GI50 in the data set on H3122 cells (H3122 cells, three days, SRB) turned out to be 10 µM; in the data set with H2228 cells (setting [2]), 10 µM.

For the compound `COc1ccc(CCN)cc1Nc1ncc(Cl)c(Nc2c(F)cccc2S(=O)(=O)C(C)C)n1` [Example 34, N2-(5-(2-aminoethyl)-2-methoxyphenyl)-5-chloro-N4-(2-fluoro-6-(isopropylsulfonyl)phenyl)pyrimidine-2,4-diaminehydrochloride], the results for the concentration for 50% growth inhibition (GI50) in the data set on H3122 cells (setting [1]) and in the data set with H2228 cells (setting [2]) were 2.2 µM and 2.3 µM, respectively.

For the compound `CCN(CC)CCc1ccc(OC)c(Nc2ncc(Cl)c(Nc3ccccc3S(=O)(=O)C(C)C)n2)c1` [Example 14, 5-chloro-N2-(5-(2-(diethylamino)ethyl)-2-methoxyphenyl)-N4-(2-(isopropylsulfonyl)phenyl)pyrimidine-2,4-diamine], the 50% growth inhibitory concentration (GI50) was 0.05 µM with H3122 cells (H3122 cells, three days, SRB); no more than 0.1 µM with H3122 cells (setting [1]); 0.09 µM with H2228 cells (setting [2]).

Turning to `COc1ccc(CCN)cc1Nc1ncc(Cl)c(Nc2cc(F)ccc2S(=O)(=O)C(C)C)n1` [Example 33, N2-(5-(2-aminoethyl)-2-methoxyphenyl)-5-chloro-N4-(5-fluoro-2-(isopropylsulfonyl)phenyl)pyrimidine-2,4-diaminehydrochloride], the GI50 was 10 µM with H3122 cells (H3122 cells, three days, SRB) and 10 µM in the data set on H2228 cells (setting [2]).

As for `COc1ccc(CCNC(C)=O)cc1Nc1ncc(Cl)c(Nc2ccccc2S(=O)(=O)C(C)C)n1` [Example 7, N-(3-(5-chloro-4-(2-(isopropylsulfonyl)phenylamino)pyrimidine-2-ylamino)-4-methoxyphenethyl)acetamide], the GI50 stood at 0.79 µM in the data set on H3122 cells (setting [1]) and 0.8 µM in the data set on H2228 cells (setting [2]).

Consider `COc1ccc(CCN2CCOCC2)cc1Nc1ncc(Cl)c(Nc2ccccc2S(=O)(=O)C(C)C)n1` [Example 22, 5-chloro-N4-(2-(isopropylsulfonyl)phenyl)-N2-(2-methoxy-5-(2-morpholinoethyl)phenyl)pyrimidine-2,4-diamine], for which the GI50 in the data set on H3122 cells (setting [1]) is 0.27 µM; with H2228 cells (setting [2]), 0.46 µM.

As to `COc1ccc(CC2(N)CC2)cc1Nc1ncc(Cl)c(Nc2ccccc2S(=O)(=O)C(C)C)n1` [Example 3, N2-(5-((1-aminocyclopropyl)methyl)-2-methoxyphenyl)-5-chloro-N4-(2-(isopropylsulfonyl)phenyl)pyrimidine-2,4-diamine], the GI50 in the data set on H3122 cells (setting [1]) worked out at 0.77 µM; with H2228 cells (setting [2]), 1.21 µM.

With `COc1cc(CNC=O)c(C)cc1Nc1ncc(Cl)c(Nc2ccccc2S(=O)(=O)C(C)C)n1` [Example 71, N-(4-((5-chloro-4-((2-(isopropylsulfonyl)phenyl)amino)pyrimidine-2-yl)amino)-5-methoxy-2-methylbenzyl)formamide], the IC50 with Ba/F3 EML4-ALK WT cells stood at 0.015 µM.

For `COc1ccc(C(C)(C)CN)cc1Nc1ncc(Cl)c(Nc2ccccc2S(=O)(=O)C(C)C)n1` [Example 35, N2-(5-(1-amino-2-methylpropane-2-yl)-2-methoxyphenyl)-5-chloro-N4-(2-(isopropylsulfonyl)phenyl)pyrimidine-2,4-diamine], the GI50 in the data set with H3122 cells (setting [1]) and in the data set on H2228 cells (setting [2]) was 1.6 µM throughout.

Take `COc1ccc(CCN2CCCCC2)cc1Nc1ncc(Cl)c(Nc2ccccc2S(=O)(=O)C(C)C)n1` [Example 21, 5-chloro-N4-(2-(isopropylsulfonyl)phenyl)-N2-(2-methoxy-5-(2-(piperidine-1-yl)ethyl)phenyl)pyrimidine-2,4-diamine]: the concentration for 50% growth inhibition (GI50) in the data set with H3122 cells was 0.06 µM; in the data set with H3122 cells (Homo sapiens, NCI-H3122, 72 h), no more than 0.1 µM; in the data set with H2228 cells (read-out: Cytotoxicity H2228 (GI50 μM)), 0.08 µM.

Regarding `COc1ccc(CCNc2ncccn2)cc1Nc1ncc(Cl)c(Nc2ccccc2S(=O)(=O)C(C)C)n1` [Example 25, 5-chloro-N4-(2-(isopropylsulfonyl)phenyl)-N2-(2-methoxy-5-(2-(pyrimidine-2-ylamino)ethyl)phenyl)pyrimidine-2,4-diamine], the GI50 with H3122 cells (setting [1]) was 1.3 µM; with H2228 cells (setting [2]), 1.5 µM.

As to `COc1ccc(CCNS(C)(=O)=O)cc1Nc1ncc(Cl)c(Nc2ccccc2S(=O)(=O)C(C)C)n1` [Example 8, N-(3-(5-chloro-4-(2-(isopropylsulfonyl)phenylamino)pyrimidine-2-ylamino)-4-methoxyphenethyl) methanesulfonamide], the results for the GI50 with H3122 cells (setting [1]) and in the data set with H2228 cells (setting [2]) were 1.9 µM and 0.88 µM, respectively.

Consider `COc1ccc(CCNC(=O)NC2CCCCC2)cc1Nc1ncc(Cl)c(Nc2ccccc2S(=O)(=O)C(C)C)n1` [Example 17, 1-(3-(5-chloro-4-(2-(isopropylsulfonyl)phenylamino)pyrimidine-2-ylamino)-4-methoxyphenethyl)-3-cyclohexylurea], for which the GI50 came to 0.88 µM with H3122 cells (setting [1]) and 2.3 µM with H2228 cells (setting [2]).

`COc1ccc(CNC(=O)C(F)(F)F)cc1Nc1ncc(Cl)c(Nc2ccccc2S(=O)(=O)C(C)C)n1` [Example 28, N-(3-((5-chloro-4-((2-(isopropylsulfonyl)phenyl)amino)pyrimidine-2-yl)amino)-4-methoxybenzyl)-2,2,2-trifluoroacetamide]: the GI50 was 0.82 µM with H3122 cells (setting [1]) and 0.98 µM in the data set on H2228 cells (setting [2]).

In the case of `CCNC(=S)NCCc1ccc(OC)c(Nc2ncc(Cl)c(Nc3ccccc3S(=O)(=O)C(C)C)n2)c1` [Example 23, 1-(3-(5-chloro-4-(2-(isopropylsulfonyl)phenylamino)pyrimidine-2-ylamino)-4-methoxyphenethyl)-3-ethylthiourea], the concentration for 50% growth inhibition (GI50) with H3122 cells (setting [1]) is 1.4 µM; with H2228 cells (setting [2]), 2.5 µM.

Consider `COc1ccc(CCNC(=S)NCc2ccccc2)cc1Nc1ncc(Cl)c(Nc2ccccc2S(=O)(=O)C(C)C)n1` [Example 20, 1-benzyl-3-(3-(5-chloro-4-(2-(isopropylsulfonyl)phenylamino)pyrimidine-2-ylamino)-4-methoxyphenethyl)thiourea], for which the results for the GI50 in the data set on H3122 cells (setting [1]) and in the data set with H2228 cells (setting [2]) were 0.31 µM and 0.42 µM, respectively.

Consider `CC(C)Oc1ccc(CCN)cc1Nc1ncc(Cl)c(Nc2ccccc2S(=O)(=O)C(C)C)n1` [Example 31, N2-(5-(2-aminoethyl)-2-isopropoxyphenyl)-5-chloro-N4-(2-(isopropylsulfonyl)phenyl)pyrimidine-2,4-diamine], for which the values for the GI50 in the data set on H3122 cells (setting [1]) and in the data set on H2228 cells (setting [2]) were 0.7 µM and 0.51 µM, respectively.

Regarding `COc1ccc(CCNC(C)C)cc1Nc1ncc(Cl)c(Nc2ccccc2S(=O)(=O)C(C)C)n1` [Example 15, 5-chloro-N2-(5-(2-(isopropylamino)ethyl)-2-methoxyphenyl)-N4-(2-(isopropylsulfonyl)phenyl)pyrimidine-2,4-diamine], the values for the GI50 in the data set with H3122 cells (setting [1]) and in the data set with H2228 cells (setting [2]) were 1.1 µM and 0.78 µM, respectively.

In the case of `COc1ccc(C(C)(C)CN)cc1Nc1ncc(Cl)c(Nc2c(F)cccc2S(=O)(=O)C(C)C)n1` [Example 38, N2-(5-(1-amino-2-methylpropane-2-yl)-2-methoxyphenyl)-5-chloro-N4-(2-fluoro-6-(isopropylsulfonyl)phenyl)pyrimidine-2,4-diamine], the GI50 stood at 10 µM in the data set with H3122 cells (H3122 cells, three days, SRB) and 10 µM in the data set on H2228 cells (setting [2]).

Turning to `CCNCCc1ccc(OC)c(Nc2ncc(Cl)c(Nc3ccccc3S(=O)(=O)C(C)C)n2)c1` [Example 13, 5-chloro-N2-(5-(2-(ethylamino)ethyl)-2-methoxyphenyl)-N4-(2-(isopropylsulfonyl)phenyl)pyrimidine-2,4-diamine], the GI50 in the data set on H3122 cells (setting [1]) was 0.99 µM; in the data set with H2228 cells (setting [2]) it was 0.87 µM.

In the case of `COc1ccc(CCNC(=O)Nc2ccccc2)cc1Nc1ncc(Cl)c(Nc2ccccc2S(=O)(=O)C(C)C)n1` [Example 18, 1-(3-(5-chloro-4-(2-(isopropylsulfonyl)phenylamino)pyrimidine-2-ylamino)-4-methoxyphenethyl)-3-phenylurea], the GI50 in the data set on H3122 cells (setting [1]) was found to be 3.6 µM; in the data set with H2228 cells (setting [2]), 4.9 µM.

On to `COc1ccc(C2(CN)CCCCC2)cc1Nc1ncc(Cl)c(Nc2ccccc2S(=O)(=O)C(C)C)n1` [Example 2, N2-(5-(1-(aminomethyl)cyclohexyl)-2-methoxyphenyl)-5-chloro-N4-(2-(isopropylsulfonyl)phenyl)pyrimidine-2,4-diamine], for which the GI50 worked out at 2.63 µM with H3122 cells (setting [1]) and 3.77 µM in the data set with H2228 cells (setting [2]).
